Values of other authors as cited in US20140284468A1, “Cancer patient selection for administration of therapeutic agents using mass spectral analysis of blood-based samples” (Biodesix, Inc., priority 2010, published 2014).

Test system: NSCLC, SCCHN, and CRC patients
Settings: VeriStrat poor subgroup, monotherapy versus placebo

Structure (SMILES): C#Cc1cccc(Nc2ncnc3cc(OCCOC)c(OCCOC)cc23)c1 [erlotinib]
- treatment benefit: essentially equivalent to treatment with placebo
